Source: patent US20090175845A1, “METHODS FOR IDENTIFYING COMPOUNDS THAT MODULATE PHB DOMAIN PROTEIN ACTIVITY AND COMPOSITIONS THEREOF” (THE TRUSTEES OF COLUMBIA UNIVERSITY IN THE CITY OF NEW YORK, priority 2005, published 2009)

Tests used:
[1] = biological target: T1, Podocin (Mus musculus, UniProt Q91X05); test: Detergent-resistant membrane (DRM) fractionation by density gradient centrifugation; type: cell-based; conditions: limited cholesterol depletion with MBCD; readdition of cholesterol, FIG. 1D
T1 construct: expressed in transfected cells; host or cells: HEK 293T
T1 sequence (Q91X05 1-385): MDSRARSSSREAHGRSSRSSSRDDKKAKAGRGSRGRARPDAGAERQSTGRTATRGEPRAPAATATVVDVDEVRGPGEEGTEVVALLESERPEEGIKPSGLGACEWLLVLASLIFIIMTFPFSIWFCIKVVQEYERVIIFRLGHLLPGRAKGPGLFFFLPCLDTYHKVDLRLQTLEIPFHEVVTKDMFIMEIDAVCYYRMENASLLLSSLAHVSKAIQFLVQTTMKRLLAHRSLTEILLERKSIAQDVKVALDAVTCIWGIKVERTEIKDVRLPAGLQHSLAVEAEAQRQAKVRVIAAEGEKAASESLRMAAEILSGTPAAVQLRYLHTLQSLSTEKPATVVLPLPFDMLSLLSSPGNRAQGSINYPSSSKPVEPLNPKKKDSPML
Method: (§1) Preparation of Detergent-Resistant Membrane Domains and Cholesterol Measurement—For preparation of low-density Triton® X-100—insoluble membrane domains (DRM; LDF) HEK 293T cells were homogenized by 20 strokes in a Dounce homogenizer in 1 ml of MBS buffer (250 mM NaCl, 5 mM EDTA, 10 mM Tris, pH 7.4, proteinase inhibitors) in the presence of 1% Triton® X-100 and centrifuged for ten minutes at 3,000×g at 4° C. The lysates were incubated for 45 minutes on ice in the presence of 1% Triton® X-100, adjusted to 45% sucrose and pipetted at the bottom of an ultracentrifuge tube. Samples were then overlaid with a sucrose step gradient (2 ml of 30% sucrose and 1 ml of 5% sucrose in MBS) as described previously {Huber, 2003 #205}. Gradients were centrifuged for 20 hours at 200,000×g at 4° C. in a swing-out rotor, and seven fractions ([…] each) were collected starting from the top and analyzed by SDS-PAGE. Cholesterol was measured using the Amplex® Red Cholesterol Assay Kit (Molecular Probes).
(§2) Cell Culture Studies. Most cell studies used HEK 293T cells that were grown in DMEM as described [Huber et al. (2001) J. Biol. Chem. 18:18]. Cholesterol-depleted cells were prepared by growing cells in DMEM with pravastatin (8 μM) for two days and then methyl-β-cyclodextrine (MBCD; 5 mM) for 30 minutes just before the experiment. […]

[2] = system: Podocin; test: Multimerization by velocity gradient centrifugation; type: cell-based, mouse; conditions: limited cholesterol depletion of Podocin-expressing cells, FIG. 5B
Method: PHB protein multimerization was studied by velocity gradient centrifugation and blue native gel electrophoresis [Schagger et al. (1991) Anal. Biochem. 199: 223-31]. For preparation of Podocin multimeric complexes HEK293T cells were lysed in 1 ml of Mes-buffered saline (MBS) in the presence of 1% Triton® X-100 and centrifuged for 10 minutes at 1,000×g at 4° C. After centrifugation, the supernatant was collected and SDS was added at a final concentration of 0.1% and incubated for 20 minutes on ice. Thereafter, the lysate was cleared by centrifugation for 15 minutes at 100,000×g. Four milliliters of a discontinuous sucrose gradient (40-5%) was layered on top of a 60% sucrose cushion in a Beckman ultracentrifuge tube. One milliliter of the cell lysate was adjusted with 1 ml of MBS, added on top of this gradient and subjected for centrifugation for 16 hours at 180,000×g at 4° C. in a Beckman SW-41 rotor. After centrifugation 2 ml of the supernatant were discarded and 8 fractions (500 μl each) were collected starting from the top and analyzed by SDS-PAGE.
Previously it was shown that shown that Podocin homo-oligomerizes and forms high-molecular weight complexes by homophilic interactions that require the PHB-domain [Huber et al. (2003) Hum. Mol. Genet. 12:3397-405]. MEC-2 also homo-oligomerizes (infra) as do other PHB-domain proteins [Umlauf et al. (2006) J. Biol. Chem.]. […]

[3] = system: HeLa-Cx43 cells; test: Ca2+-FLIPR assay, histamine-induced calcium influx; type: cell-based; conditions: limited cholesterol depletion, FIG. 11D
Method: Ca^2+-FLIPR Assay—HeLa-Cx43 cells were loaded with […] FLUO-4/AM and 0.04% Pluronic F-127 (both from Molecular Probes) in HBS but with 20 mM HEPES and 2.5 mM probenecid as described previously (20). After loading, cells were washed twice with HBS by an automated plate washer (Denley Cellwash, Labsystems) and transferred to the FLIPR (Molecular Devices). The FLIPR integrates an argon laser excitation source, a 96-well pipettor, and a detection system utilizing a CCD imaging camera. […] of 3× histamine concentrations were delivered within 2 seconds simultaneously to all of the wells containing […] of HBS. Fluorescence emissions from the 96-wells were monitored simultaneously at an emission wavelength of 515 nm after excitation with 488 nm (F488). Fluorescence data were collected at 0.25 Hertz, 48 seconds before and 8 minutes after stimulation, and analyzed off-line. Histamine response amplitudes were determined from the fluorescence at 3.2 minutes (peak of calcium influx) of the solvent control-subtracted and base-line-corrected traces, and averaged over 3-4 wells of same transfectants, receiving the same stimulus. EC50 values and curves were derived from fitting the function f(x)=(a−d)/(1+(x/C)nH)+d to the data by non-linear regression with a=minimum, d=maximum, C=EC50, and nH=Hill coefficient. […]

[4] = system: MEC-2; test: Detergent-resistant membrane (DRM) fractionation by density gradient centrifugation; type: cell-based, C. elegans; conditions: limited cholesterol depletion with MBCD, FIG. 1D
Method: as §1, §2

methyl-β-cyclodextrin [MBCD]
Podocin in DRM fractions [1]: loss of Podocin and MEC-2 from the DRM fractions
formation of high-molecular weight complexes [2]: did not interfere
Podocin-dependent stimulation of Ca2+ influx [3]: abolished
MEC-2 in DRM fractions [4]: loss of Podocin and MEC-2 from the DRM fractions
